Results as given in patent US9119884B2, “LLP2A-bisphosphonate conjugates for osteoporosis treatment” (The Regents of the University of California, priority 2010, dated 2015).

Legend:
[1] = test system: bone marrow cells undergoing osteogenic differentiation; assay: Rainbow bead cell-binding assay; type: cell-based, mouse; conditions: cells cultured in osteogenic medium for 7 days, incubated with rainbow beads
Protocol: Mouse MSCs were purchased from Invitrogen (Cat#S1502-100), cultured in osteogenic medium for 7 days and incubated with rainbow beads for one hour. […] Original magnification 10× on the right and 20× on the left of the top panel.
A new color-encoding method that facilitates high-throughput screening of OBOC combinatorial libraries was developed. This method differs from the traditional methods used to monitor integrin expressions in the MSCs, i.e., the use of antibody-based fluorescence-activated cell sorting (FACS) or immunoblotting. In the present method, polymer beads displaying chemical compounds or families of compounds were stained with oil-based organic dyes that are used as coding tags. […] These rainbow beads were prepared in a multiplex manner such that each ligand reacted to one or a series of integrins that were coded one color, See FIG. 7 (Luo, J., et al., J Comb Chem, 2008, 10(4): p. 599-604). This rainbow bead technique was then applied to determine the integrin profile on the cell surfaces.
In FIG. 7, bone marrow cells were cultured in osteogenic medium for 7 days and incubated with rainbow beads. The purple beads that coded with LLP2A, the ligand with high affinity and specificity against α4β1, were covered with layers of cells identified by green arrows. […]

[2] = test system: 10-week-old ovariectomized (OVX) mice; assay: Ovariectomized (OVX) mouse model; type: in vivo
Text: FIG. 21 depicts histomorphometric analyses of the 5th lumbar vertebral bodies after LLP2A-Ale treatment of 10-week-old ovariectomized (OVX) mice, showing increases in osteoblast numbers, activities and bone formation rate/bone surface (BFR/BS) post-treatment. Analyses included trabecular bone area (%), osteoblast surface (Ob/BS), mineralizing surface (MS/BS) activities and BFR/BS (P<0.05).
Representative fluorescent images from the trabecular bone at the 5th LVB (Top panel: white arrowheads illustrate osteoblasts; Bottom panel: yellow arrows illustrate double labeled trabecular bone surfaces).
FIG. 23 depicts histomorphometry analyses of the right mid-femurs included bone formation at the endosteal (Ec) or periosteal (Ps.) bone surfaces, and cortical bone thickness of 10-week-old ovariectomized (OVX) mice. […] Three-point bending was performed on left femurs to obtain maximum stress of the femurs.
Short yellow arrows illustrated double labeled endocortical bone surfaces. (a, p<0.05 versus Sham; b, P<0.05 vs. OVX+PBS, c, P<0.05 vs. OVX+LLP2A; d, P<0.05 vs. OVX+Ale. Data are represented as Mean±SD).

MSC = MSC osteoblast maturation, function, migration and lineage potentials; type: cell-based

Cc1ccccc1NC(=O)Nc1ccc(CC(=O)N[C@@H](CCCCNC(=O)/C=C/c2cccnc2)C(=O)N[C@@H](CCCC(=O)O)C(=O)NC2(C(=O)NCCOCCOCCNC(=O)CCC(=O)NCCOCCOCCNC(=O)CCC(=O)N[C@@H](CCCCNC(=O)[C@H](N)CSC3CC(=O)N(CC4CCC(C(=O)NCCCC(O)(P(=O)(O)O)P(=O)(O)O)CC4)C3=O)C(N)=O)CCCCC2)cc1 (stereo partly shown) [LLP2A-Ale, LLP2A-Alendronate]
cell binding to ligand-coded rainbow beads (affinity) [1]: high affinity
osteoblast numbers, activities and bone formation rate/bone surface (BFR/BS) ([2]; 5th lumbar vertebral bodies): increases
maximum stress ([2]; femur three-point bending, single IV injection of conjugate or four weeks of PTH): not significantly altered
endocortical bone formation ([2]; mid-femur, vs OVX): increases
cortical bone thickness ([2]; mid-femur, single IV injection of conjugate or four weeks of PTH): not significantly altered
MSC chondrogenic or adipogenic potentials (MSC): without affecting
MSC osteoblast maturation, function and migration (MSC): increases
